This is an account of results in patent US5455226A, “EGF-containing pharmaceutical composition for the treatment of bronchopulmonary pathologies” (Synthelabo, priority 1991, dated 1995).

Assay [1] deals with surface epithelial cells dissociated from nasal polyp. Nature of the assay: In vitro model of lesion of the respiratory epithelium: repair index. Type of assay: cell-based, human. The conditions noted are these: for repair index: 10 ng/ml. The method, then:
Surface epithelial cells dissociated from nasal polyp are cultured on a collagen I matrix in RPMI culture medium supplemented with hydrocortisone,retinoic acid, insulin and EGF (epidermal growth factor). After about 3 days of culture, when the cells have become confluent, the supplemented culture medium is replaced with unsupplemented RPMI medium. After incubating for 12 hours in the presence of unsupplemented medium, the culture is placed on the stage of an inverted microscope equipped with a micromanipulator. A microcapillary, guided by the micromanipulator, makes it possible to detach cells, thus creating a wound with a surface area of about 100,000 μm^2. The unsupplemented culture medium is then replaced with culture medium containing only EGF at different concentrations. Video recordings of the injured culture are then made every hour. Using these video recordings, an image analyser makes it possible to monitor the variation of the surface area of the wound as a function of time. A regression line between the surface area of the wound (expressed in μm^2) and the time (expressed in hours) makes it possible to calculate the slope of the regression line obtained, a slope which corresponds to the decrease in the surface area of the wound per unit of time. The latter parameter corresponds to the repair index (the higher the index, the faster the repair).
Eight nasal polyps were used to culture respiratory epithelial cells (5 culture dishes per polyp). In each of these dishes, the injured cultures are incubated either in the presence of unsupplemented culture medium, or in the presence of culture medium supplemented with EGF at various concentrations (5, 10, 20 or 50 ng/ml). From the variation of the surface area as a function of time (the repair index corresponds to the slope of the regression line between the surface area of the wound and time), we calculated the repair index. This index is then expressed relative to the repair index obtained with the EGF-free culture medium used as control. The results obtained show a systematic increase in the repair index for wounds in the presence of EGF. At a concentration of 5 and 10 ng/ml, EGF stimulates the repair by 38% and 36% respectively. At the concentration of 20 ng/ml, the stimulation is 49%.
This study was carried out under the same experimental conditions as above. The repair index for the wounds was quantified in the presence of unsupplemented culture medium and in the presence of culture medium supplemented either with EGF of mouse submaxillary gland (m-EGF: 10 ng/ml), or with recombinant human EGF (h-EGF: 10 ng/ml).

Assay [2] has as its system human respiratory epithelial cells (from nasal polyps). The assay is described as follows: Explant culture of respiratory epithelial cells: growth area around explants. The conditions noted are these: increasing EGF concentration up to 20 ng/ml; p<0.05. Type of assay: cell-based. On the procedure:
(§1) Cultures of respiratory epithelial cells are obtained from nasal polyps by the technique of explants (growth of cells around the explant) and by the technique of dissociated cells cultured in a three-dimensional collagen matrix (collagen lattice).
(§2) The explants are cultured in the presence of varying concentrations (0, 5, 10 and 20 ng/ml) of EGF (EGF from mouse submaxillary glands, ref. E 4127, Sigma). The growth area around the explants is quantified after 3 and 4 days of culture. The percentage of growth area covered with ciliated cells as well as the ciliary beat frequency were measured after 3 days of culture. For the collagen lattice culture technique, the number of cells in culture was quantified up to 11 days after of culture, and this in the absence and in the presence of EGF (10 ng/ml).

Assay [3] has the same test system. Nature of the assay: Dissociated respiratory epithelial cells cultured in a collagen lattice: cell number and morphology. In kind it is cell-based. On the procedure: as §1, §2
In assay [4] the test system is ciliated cells of human respiratory epithelium. The assay is described as follows: Functional activity of ciliated cells in explant culture. In kind it is cell-based. The conditions noted are these: 20 ng/ml of EGF, after 3 days of culture. The method, then:
as §1, §2

Assay [5] has as its system human respiratory epithelial cells in culture. Nature of the assay: In vitro model of respiratory epithelium wound repair (30 to 50 cells detached by micromanipulator). Type of assay: cell-based. The conditions noted are these: EGF 10 ng/ml. On the procedure:
(§3) The study of the repair of wounds of the respiratory epithelium was performed on an in vitro model. Thirty to 50 cells are detached from the culture by means of a micromanipulator so as to expose the collagen matrix on which the epithelial cells proliferate. The repair of this injured region is monitored as a function of time on cultures in the presence of EGF (10 ng/ml) or in the absence of EGF. For the technique of culture of dissociated cells in a collagen lattice, the effect of EGF on the retraction of the collagen lattice was studied after 8 days of culture. This retraction is quantified by measuring the area of the collagen lattice.

Assay [6] deals with superficial respiratory epithelial cells. Nature of the assay: Retraction of the collagen lattice by respiratory epithelial cells. Type of assay: cell-based, human. To be noted: after 8 days of culture in the presence of EGF. The method, then: as §3

Where “and” joins values, the source holds several entries; their conditions need not be identical. Equal values may be shown once.

Regarding “h-EGF: recombinant human EGF (Sigma, Ref. E-3264)”, in assay [1], the repair index is given as 11492 μm^2 /h.

For the substance “EGF: Epidermal Growth Factor polypeptide from mouse submaxillary glands, ref. E 4127, Sigma”, the “growth area around the explants” value in assay [2] is listed as “substantial increase in the growth area”. In addition, in assay [3] (after 8 days of culture, in the presence of EGF vs without), the number of cells entry is listed as “twice as high”. Moreover, the “rate of cell proliferation” value in assay [3] (collagen lattice, EGF 10 ng/ml, compared with cultures without EGF) is listed as “higher”. The “formation of three-dimensional structures” value in assay [3] (collagen lattice, EGF in the culture medium) was “promotes the formation of tubular type three-dimensional structures”. In assay [4], the ciliary beat frequency came out at 14.5 Hz. The “percentage of the growth surface covered with ciliated cells” value in assay [4] worked out at 43%. For the same substance, the “slope of the regression line (wound repair)” value in assay [5] was -71.8. Also, the collagen lattice area in assay [6] amounted to 660 mm^2. Besides, the repair index in assay [1] is reported as 11215 μm^2 /h. In addition, the “stimulation of the repair (repair index relative to EGF-free control)” value in assay [1] (EGF 5 ng/ml) is 38%; in assay [1] (EGF 10 ng/ml), 36%; in assay [1] (EGF 20 ng/ml), 49% and ~50%. Besides, the “repair index compared with the index obtained with 20 ng/ml of EGF” value in assay [1] (EGF 50 ng/ml, p<0.05) is given as “significantly (p<0.05) reduced”.
